Data taken from ChEMBL document CHEMBL5107958, “Phosphoramidate Prodrugs Continue to Deliver, The Journey of Remdesivir (GS-5734) from RSV to SARS-CoV-2” (ACS Med Chem Lett, 2022).

Assays:
Nipah virus [1] = assay: Potency index, ratio of EC50 of GS-441524 to EC50 of test compound for antiviral activity against Nipah B2004 infected in human NCI-H358 cells assessed as reduction in viral replication incubated for 48 to 144 hrs by reporter virus assay; type: functional, Henipavirus nipahense; conditions: time 48-144 hrs
Ebolavirus = assay: Potency index, ratio of EC50 of GS-441524 to EC50 of test compound for antiviral activity against Ebola infected in human macrophages assessed as reduction in viral replication; type: functional, Macrophage
[2] = Half life in ferret at 10 mg/kg, iv; type: ADME, organism-based, Mustela putorius furo; conditions: in vivo
SARS-CoV-2 [3] = assay: Antiviral activity against SARS-CoV-2 infected in human A549 cells expressing hACE2 assessed as reduction in viral replication at MOI of 0.025 incubated for 48 hrs by luciferase based assay; type: functional, organism-based; conditions: Severe acute respiratory syndrome coronavirus 2, A549, 48 h
SARS-CoV-2 [4] = assay: Antiviral activity against SARS-CoV-2 infected in African green monkey Vero E6 cells assessed as reduction in viral replication; type: functional, organism-based; conditions: Severe acute respiratory syndrome coronavirus 2, Vero C1008
Measles morbillivirus [5] = assay: Potency index, ratio of EC50 of GS-441524 to EC50 of test compound for antiviral activity against Measles virus infected in HMVEC cells assessed as reduction in viral replication; type: functional
Marburgvirus = assay: Antiviral activity against MARV Rec. Bat371-GFP infected in human Huh-7 cells assessed as reduction in viral replication incubated for 48 to 144 hrs by fluorescence based assay; type: functional, organism-based; conditions: Orthomarburgvirus
Nipah virus [6] = assay: Potency index, ratio of EC50 of GS-441524 to EC50 of test compound for antiviral activity against Nipah M1999 infected in human HeLa cells assessed as reduction in viral replication incubated for 48 to 144 hrs by reporter virus assay; type: functional, Henipavirus nipahense; conditions: time 48-144 hrs
Nipah virus [7] = assay: Antiviral activity against Nipah B2004 infected in human NCI-H358 cells assessed as reduction in viral replication incubated for 48 to 144 hrs by reporter virus assay; type: functional, organism-based; conditions: Henipavirus nipahense
SARS-CoV-2 [8] = assay: Potency index, ratio of EC50 of GS-441524 to EC50 of test compound for antiviral activity against SARS-CoV-2 infected in human Caco-2 cells assessed as reduction in viral replication at MOI of 0.01 measured after 72 hrs by qRT-PCR analysis; type: functional, Severe acute respiratory syndrome coronavirus 2
SARS-CoV-2 [9] = assay: Potency index, ratio of EC50 of GS-441524 to EC50 of test compound for antiviral activity against SARS-CoV-2 infected in human PSC-derived lung epithelial cells assessed as reduction in viral replication; type: functional, Severe acute respiratory syndrome coronavirus 2, PSC-derived lung epithelial cell
SARS-CoV-2 [10] = assay: Antiviral activity against SARS-CoV-2 infected in human PSC-derived lung epithelial cells assessed as reduction in viral replication; type: functional, organism-based; conditions: Severe acute respiratory syndrome coronavirus 2, Epithelial cell
[11] = system: Middle East respiratory syndrome-related coronavirus; assay: Potency index, ratio of EC50 of GS-441524 to EC50 of test compound for antiviral activity against MERS-CoV infected in HAE cells assessed as reduction in viral replication at MOI of 0.5 incubated for 3 hrs followed by virus removal measured after 48 hrs by Hoechst 33258 staining based assay; type: functional; conditions: time 51 hrs
Measles morbillivirus [12] = assay: Antiviral activity against Measles Rec.rMVEZGFP(3) infected in human HeLa cells assessed as reduction in viral replication incubated for 48 to 144 hrs by fluorescence based assay; type: functional, organism-based

CCC(CC)OC(=O)[C@H](C)N[P@](=O)(OC[C@H]1O[C@@](C#N)(c2ccc3c(N)ncnn23)[C@H](O)[C@@H]1O)Oc1ccccc1
Ratio (Nipah virus [1]): 77
Ratio (Ebolavirus): >232
half-life [2]: 11 min
EC50 (SARS-CoV-2 [3]): 115 nM
EC50 (SARS-CoV-2 [4]): 740 nM
Ratio (Measles morbillivirus [5]): 13
EC50 (Marburgvirus): 14 nM
Ratio (Nipah virus [6]): 32
EC50 (Nipah virus [7]): 32 nM
Ratio (SARS-CoV-2 [8]): 80
Ratio (SARS-CoV-2 [9]): 5.3
EC50 (SARS-CoV-2 [10]): 140 nM
Ratio [11]: 12
EC50 (Measles morbillivirus [12]): 37 nM
